Reference: US9192644B2, “Bioavailable curcuminoid formulations for treating Alzheimer's disease and other age-related disorders” (The Regents of the University of California, priority 2006, dated 2015)
Like-named read-outs stand apart in the source and are kept apart here. Marks after values point to notes of the source that are not given here.

Tests used:
[1] = Plasma levels after chronic Curc or TC administration in diet (500 ppm chow, 4 months); assay type: in vivo, APPsw mice; settings: for Plasma (μM) / concentration at 4 months: APPsw mice, 500 mg/kg chow (2.5 mg/day), 4 months; for concentration at 4 months: mouse, plasma, oral
[2] = 4 hr after administration
in vivo = settings: mouse
[3] = assay type: physicochemical
Excerpt: Therefore, providing a curcuminoid-to-antioxidant ratio of about 10:1 or higher should be sufficient to prevent hydrolysis during absorption, and enhance bioavailability. […] Thus, additional antioxidant need not add prohibitively to the bulk of a formulation.

amyloid accumulation = assay: Amyloid accumulation in vivo in APP Tg mice
[4] = system: active c-jun kinase (p)JNK; assay: Inhibition of active c-jun kinase in brain after curcumin administration; assay type: in vivo; settings: mice, plasma levels 0.25-0.5 micromolar
[5] = Conversion of curcumin to tetrahydrocurcumin in plasma; assay type: in vivo
IL-1β = assay: Inhibition of pro-inflammatory IL-1β in brain after curcumin administration; assay type: in vivo; settings: mice, plasma levels 0.25-0.5 micromolar
iNOS = assay: Inhibition of iNOS in brain after curcumin administration; assay type: in vivo; settings: mice, plasma levels 0.25-0.5 micromolar

COc1cc(CCC(=O)CC(=O)CCc2ccc(O)c(OC)c2)ccc1O [TC, tetrahydrocurcumin]
Plasma (μM) [1]: (0.734 μM)
concentration at 4 months [1]: 270 ± 3 ng/mL
plasma levels relative to curcumin ([1]; same oral doses, our data and data in the literature): 7-8 times
Plasma (μM) ([2]; i.m., dose 73.5 μg): (2.639 μM)
Plasma (μM) ([2]; i.p., dose 147.0 μg): (2.302 μM)
Brain (μg/10 mg protein) (gav, dose 147.0 μg, 4 hr after administration): 0.027 ± 0.002^a μg/10 mg protein
Brain (μg/10 mg protein) (i.m., dose 73.5 μg, 4 hr after administration): 0.223 ± 0.023^c μg/10 mg protein
Brain (μg/10 mg protein) (i.p., dose 147.0 μg, 4 hr after administration): 0.076 ± 0.003^b μg/10 mg protein
concentration at 4 hr (in vivo; 73.5 μg): 971 ± 92 ng/mL
concentration at 4 hr (in vivo; ip, 147 μg): 847 ± 19 ng/mL
stability in aqueous solution [3]: stable even at basic pH

O=C1O[C@H]([C@@H](O)CO)C(O)=C1O [ascorbic acid]
retarding curcumin hydrolysis ([3]; 25 micromolar curcumin, PBS pH 7.4, absorbance at 426 nm (FIG. 2)): very effective
retarding hydrolysis of curcumin ([3]; curcumin-to-ascorbic acid ratio of 1:1 or 2:1, absorbance at 450 and 405 nm (FIGS. 3 and 4)): very effective
retarding hydrolysis of curcumin ([3]; curcumin-to-ascorbic acid ratios higher than 2:1 (FIGS. 3 and 4)): somewhat diminished effectiveness

COc1cc(/C=C/C(=O)CC(=O)/C=C/c2ccc(O)c(OC)c2)ccc1O [Curc, curcumin]
Plasma (μM) [1]: (0.095 μM)
concentration at 4 months [1]: 35 ± 14 ng/mL
amyloid accumulation (amyloid accumulation): effectively reduces
inhibition of active c-jun kinase (p)JNK [4]: ~50%
Brain (μg/10 mg protein) (mouse, in vivo, ip, 4 hr): 0.074 ± 0.003^b μg/10 mg protein
curcuminoids in plasma naturally converted to tetrahydrocurcumin [5]: 25%
concentration at 4 hr (in vivo): 250 to 500 nM
stability in aqueous solution [3]: unstable in aqueous solutions above pH 7.0
inhibition of pro-inflammatory IL-1β (IL-1β): ~50%
inhibition of iNOS (iNOS): ~50%
